Experimental data as given in patent US20070249988A1, “Electrotransport Delivery of Nesiritide” (ALZA CORPORATION, priority 2006, published 2007).

Legend:
[1] = Stability on exposure to human epidermis; type: in vitro ADME
Experimental: The peptide was incubated in various buffer systems, both with and without human epidermis, at concentrations to be used for donor solutions. Experiments were conducted at 32° C. for 8 hours and 24 hours. The solutions were separated into portions and analyzed by RP-HPLC using the conditions described in the table below, both directly and after dilution to give a concentration of nesiritide at ˜100 μg/mL. In some cases, donor solutions were also removed and analyzed following ET Flux experiments.

[2] = Circular dichroic spectrometry (CD), secondary structure; type: physicochemical
Experimental: Circular dichroic spectrometry was used to assess the amount of secondary structure present in nesiritide under aqueous, low ionic strength conditions. In addition, changes in the value calculated for mean residual ellipticity were analyzed to determine if secondary structure, specifically α-helix, could be induced upon the addition of 2,2,2-trifluoroethanol (TFE) or high salt, or both, to nesiritide in aqueous solution at 0.8 mg/mL.
Several methods have been used to estimate the secondary structural components of proteins from the CD spectra. The techniques have been applied to peptide spectra with varying degrees of success (Sreerama, N., Woody, R. W. A Self-Consistent method for the Analysis of Protein Secondary Structure from Circular Dichroism, Analytical Biochemistry, 1993; 209 32-44; Yang, J. T. et al. Separation and Analysis of Peptides and Proteins, Methods Enzymology, 1986; 130 208-269). Computer programs were used to analyze the data from CD scans. Mean residue ellipticity ([θ]nm) was computed at each wavelength and compared to reference spectra to estimate the relative amounts of helix, sheet, turn and aperiodic secondary structure.
The secondary structure assumed by nesiritide in an aqueous environment and induced by the addition of TFE, NaCl or both, were analyzed by CD. The peptide was studied at both 32 and 20° C. The peptide was studied at two concentrations: 0.2 mg/mL (20° C.) to allow data to be obtained at wavelengths below 200 nm, and at 0.8 mg/mL (32° C.) to increase any tendency toward self association. The CD ellipticity values at 222 nm have been interpreted to best reflect the amount of α-helix. The fully helical peptide or protein would have [θ]222nm of −32,000° cm^2, while the peptide lacking secondary structure would have a value of ˜2400° cm^2.
The use of the lower concentration, with a 2 mm path, allowed data to be collected down to 197 nm. The difference spectrum (FIG. 1B) was resolved into component gaussian bands (Holladay, L. A., Savage, C. R., Cohen, S., Puett, D. Biochemistry, 1976; 15 2624-2633; Holladay, L. A., Hammonds, R. G., Jr., Puett, D. Biochemistry, 1974; 13 1653-1661) in order to estimate the amount of α-helix and β-sheet formed. Estimates of secondary structure were made by computing the ratio of the observed rotational strength (R cgs) with those for poly-L lysine in either the α-helical or β-sheet form. The table below gives the parameters of the resolved gaussians, and the estimates of secondary structure. Nesiritide in 40% TFE probably exists as a mixture of conformers.

hairless guinea pigs = assay: Skin irritation after electrotransport administration; type: in vivo
Experimental: Nesiritide was administered to hairless guinea pigs, and the guinea pigs were monitored for skin irritation.

[3] = Sedimentation equilibrium analytical ultracentrifugation (XLA), self-association; type: physicochemical; set-up: M(1 − vbar * p) observed: unit not given beside the values; details: for Residual Pattern / M(1 − vbar * p) observed: 10 mM ionic; for M(1 − vbar * p) observed: 32° C., 44,000 rpm
Experimental: Nesiritide's tendency towards self-association was assessed using sedimentation equilibrium analytical ultracentrifugation (XLA). An increase in the concentration of peptide in the donor formulation usually is expected to produce an increase in the rate of transport. With many peptides, raising the peptide concentration in solution will also heighten any tendency toward self-association. The conditions of the donor formulation are selected to maximize delivery and minimize aggregation. The development of peptide aggregates in solution can be determined directly by analytical ultracentrifugation. The sensitivity of detection requires at least 5% of the peptide exist as an aggregate.
Solutions of nesiritide at pH 6 and 7, (10 mM ionic imidazole) and pH 8 (10 mM ionic serinamide) were analyzed by sedimentation equilibrium ultracentrifugation. Samples were centrifuged to equilibrium at 44,000 rpm at 32° C., overnight. Absorbance as a function of radial position was determined at 258 nm.
When a highly charged peptide, such as nesiritide at pH 7, is formulated in a low ionic strength buffer, it will behave in a nonideal manner. Under such conditions, the apparent buoyant molecular weight will be lowered because of charge-charge repulsion. Theory has not been developed to estimate the magnitude of this effect when the bulk of the solution ionic strength arises from the peptide and its counter ions (as opposed to the case where the buffer ions contribute the majority of the ionic strength). The calculated value for M(1−vbar*ρ), given in the table below, was based on the behavior expected under ideal conditions.

[4] = 40% TFE difference spectrum, 0.2 mg/mL, 20° C., pH 7, 10 mM ionic cacodylate, 2 mm path
[5] = 3 mg/mL (~1 mM), pH 6 (imidazole)
[6] = 3 mg/mL (~1 mM), pH 7 (imidazole)
[7] = 3 mg/mL (~1 mM), pH 8 (serinamide)
[8] = 10 mg/mL (~3 mM), pH 7 (imidazole)

CC[C@H](C)[C@@H]1NC(=O)[C@H](CCCNC(=N)N)NC(=O)[C@H](CC(=O)O)NC(=O)[C@H](CCSC)NC(=O)[C@H](CCCCN)NC(=O)[C@H](CCCNC(=N)N)NC(=O)CNC(=O)[C@H](Cc2ccccc2)NC(=O)[C@@H](NC(=O)CNC(=O)[C@H](CO)NC(=O)CNC(=O)[C@H](CCC(N)=O)NC(=O)[C@@H](NC(=O)[C@H](CCSC)NC(=O)[C@H](CCCCN)NC(=O)[C@@H]2CCCN2C(=O)[C@@H](N)CO)C(C)C)CSSC[C@@H](C(=O)N[C@@H](CCCCN)C(=O)N[C@H](C(=O)N[C@@H](CC(C)C)C(=O)N[C@@H](CCCNC(=N)N)C(=O)N[C@@H](CCCNC(=N)N)C(=O)N[C@@H](Cc2c[nH]cn2)C(=O)O)C(C)C)NC(=O)CNC(=O)[C@H](CC(C)C)NC(=O)CNC(=O)[C@H](CO)NC(=O)[C@H](CO)NC(=O)[C@H](CO)NC(=O)[C@H](CO)NC1=O [Nesiritide, nesiritide]
resistance to destruction ([1]; following exposure to human epidermis): quite resistant to destruction
stability with added human skin ([1]; pH 7, 24-hour, 32° C., with added human skin): no destruction
[θ]222nm mean residue ellipticity ([2]; 0.8 mg/mL (1 mm path), pH 5.5 unbuffered, in water): −1984 deg cm^2 dmol^−1
[θ]222nm mean residue ellipticity ([2]; 32° C., 40% or 80% TFE or 1.8 M NaCl): ~3200 ° cm^2 dmol^−1
% Structure Estimate, α-Helix n → Π* (222 nm) [2, 4]: 6.4%
% Structure Estimate, α-Helix Π → Π* (208 nm) [2, 4]: 5.0%
% Structure Estimate, β-Sheet n → Π* (215 nm) [2, 4]: 5.1%
skin irritation (hairless guinea pigs; 0.1 mA/cm^2): mild
skin irritation (hairless guinea pigs; 0.2 mA/cm^2): mild
Residual Pattern [3, 5]: nonideal
M(1 − vbar * p) observed [3, 5]: 630
Residual Pattern [3, 6]: flat
M(1 − vbar * p) observed [3, 6]: 644
Residual Pattern [3, 7]: polydisperse
M(1 − vbar * p) observed [3, 7]: 884
Residual Pattern [3, 8]: nonideal
M(1 − vbar * p) observed [3, 8]: 703
self-association ([3]; all conditions tested, by ultracentrifugation): no indication of self-association
association state ([3]; highest concentration analyzed, 3 mM, 10 mg/mL at pH 7 in 10 mM ionic buffer): remained monomeric
